Experimental data reported in patent US12281098B2, “Five-membered-fused six-membered compound, preparation method, pharmaceutical composition and use” (HANGZHOU POLYMED BIOPHARMACEUTICALS, INC., priority 2021, dated 2025).
Read-outs that look alike come from different tables or passages of the source.

How the values were obtained:
IRAK4 kinase = target: T1, IRAK4 kinase (Homo sapiens, UniProt Q9NWZ3); experiment: Compound inhibition of IRAK4 kinase activity (fluorescence microfluidic mobility shift assay); type: biochemical; details: 10 μM ATP, 6 nM IRAK4 kinase
T1 construct: purchased Carna 09-145
T1 sequence (Q9NWZ3 1-460): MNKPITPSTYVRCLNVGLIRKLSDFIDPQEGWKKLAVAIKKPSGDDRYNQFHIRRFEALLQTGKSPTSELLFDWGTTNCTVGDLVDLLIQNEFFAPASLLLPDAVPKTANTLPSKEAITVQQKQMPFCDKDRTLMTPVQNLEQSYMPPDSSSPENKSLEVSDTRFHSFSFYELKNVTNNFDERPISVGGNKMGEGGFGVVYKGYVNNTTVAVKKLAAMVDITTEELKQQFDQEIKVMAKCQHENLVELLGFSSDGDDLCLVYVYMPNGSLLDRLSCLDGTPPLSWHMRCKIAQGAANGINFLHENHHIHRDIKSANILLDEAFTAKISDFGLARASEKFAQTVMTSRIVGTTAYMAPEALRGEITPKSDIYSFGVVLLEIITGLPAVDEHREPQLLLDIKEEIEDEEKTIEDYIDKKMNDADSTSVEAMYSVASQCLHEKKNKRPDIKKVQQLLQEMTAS
Protocol: Based on the experimental method of fluorescence microfluidic mobility shift assay, the IC50 value of the compound for competitive binding of ATP to IRAK4 kinase was determined. The initial detection concentration of the compound was 10 μM, which was 4-fold serially diluted to 0.38 nM and assayed in duplicate. In this case, commercially available staurosporine was the standard control for the assay.
1) IRAK4 kinase was dissolved in kinase buffer (50 mM HEPES pH 7.5, 10 mM MgCl2, 2 mM DDT, and 0.01% Brij-35) at a final concentration of 6 nM.
2) The substrate peptide FAM-P8 and ATP were dissolved in the above kinase buffer, and the final concentrations of the substrate peptide FAM-P8 and ATP for IRAK4 were 3 μM and 10 μM, respectively.
3) Compound dilution: The compound was first diluted to 50 μM, and then 4-fold serially diluted with DMSO. In this case, the solution without compound and kinase served as the blank control, corresponding to the “minimum value” shown below; the solution without compound but containing kinase, adenosine 5′-triphosphate disodium salt hydrate, DMSO, and the buffer served as the positive control, corresponding to the “maximum value” shown below.
4) Kinase reaction and termination: 10 μL of the kinase buffer was added to a 384-well plate containing 5 μL of the compound to be tested, and the mixture was incubated at room temperature for 10 minutes; another 10 μL of buffer containing the substrate peptide and adenosine 5′-triphosphate disodium salt hydrate was added to the 384-well plate, and after incubation at 28° C. for 1 hour, 25 μL of termination solution (100 mM HEPES pH 7.5, 50 mM EDTA, 0.2% Coating Reagent #3, and 0.015% Brij-35) was added to each well to terminate the reaction.
5) Data reading: CaliperEZ Reader II instrument was used to read the conversion rate data. Setting conditions: downstream voltage as −500 V, upstream voltage as −2250 V, base pressure as −0.5 PSI, and screening pressure as −1.2 PSI.
6) Data calculation: the conversion rate data was copied from CaliperEZ Reader II, and the conversion rate was converted into inhibition rate data. The calculation formula is as follows: Inhibition percentage (%)=(maximum value−conversion rate)/(maximum value−minimum value)*100%
IC50 values were fitted with XLFit excel add-in version 5.4.0.8.

THP-1 cells = experiment: LPS-stimulated cytokine (TNFα) release in THP-1; type: cell-based, Human; details: LPS 100 ng/mL, 5 hours, TNF-α ELISA, read-out: Inhibition IC50 (nM) of cytokines (TNFα) against LPS-stimulated inflammatory responses in THP-1 cells
Protocol: THP-1 cells were cultured in suspension in RPMI 1640 complete medium (containing 10% serum, 1% penicillin-streptomycin, and 55 μM β-mercaptoethanol). THP-1 cells were collected, centrifuged at 350×g at room temperature to discard the supernatant, and resuspended in RPMI 1640 complete medium to a concentration of 2×10^6 cells per mL. THP-1 cells were spread into a 96-well plate at a concentration of 2×10^5 cells per well, and different concentrations of the compound to be tested were added thereto. The plate was incubated in a 37° C. cell culture incubator with 5% CO2 for 60 minutes. 50 μL of LPS at a final concentration of 100 ng/mL was added to a 96-well plate, and incubated in a 37° C. cell culture incubator for 5 hours. The cell culture plate was then taken out from the incubator, and centrifuged at 350×g at low temperature for 5 minutes to collect 150 μL of the supernatant. Referring to the instructions in the Human TNF-α Duoset ELISA Kit, the level of TNF-α in the cell culture supernatant was detected.
Data on the inhibitory activity of cytokines (TNFα) against LPS-stimulated inflammatory responses in THP-1 cells are shown in Tables 3 and 4.

[1] = target: T2, IRAK4 protein in THP-1 cells (Homo sapiens, UniProt Q9NWZ3); experiment: IRAK4 protein degradation in THP-1 induced by PROTAC (Western Blot); type: cell-based; details: Table 6, estimated bins, GAPDH internal reference
T2 construct: endogenous in cells; host or cells: THP-1
T2 sequence (Q9NWZ3 1-460): T1 sequence (Q9NWZ3 1-460)
Protocol: 3.1. Based on the experimental method of immunoblot, i.e., Western Blot, THP-1 cell samples processed by gel electrophoresis were stained with specific antibodies, and the degradation activity of the compounds on the IRAK4 protein in THP-1 cells was determined by analyzing the position of the staining and the depth of the staining. The detection concentrations of the compounds were 0 μM, 0.3 μM, 1 μM, and 3 μM, and the compounds were used to treat the cells for 8 hours, 16 hours, 24 hours, and 48 hours. In this case, glyceraldehyde-3-phosphate dehydrogenase (GAPDH) was the internal reference protein for the assay.
THP-1 cells were spread into a 6-well plate at a density of 1.5×10^6 cells per mL, and incubated in a 37° C. cell culture incubator with 5% CO2 for 2 hours. The compound was diluted with DMSO to 0.6 mM, 0.2 mM, and 0.06 mM, respectively. 10 μL of compound solution was added to the corresponding wells, and the plate was incubated in the incubator for 16 hours, 24 hours, and 48 hours, respectively. The drug-treated THP-1 cells were collected from the wells, added with 120 μL of RIPA lysis buffer containing protease inhibitor, phosphatase inhibitor cocktail 2, and phosphatase inhibitor cocktail 3, and lysed on wet ice for 30 minutes. The cell lysate was then centrifuged at low temperature and high speed for 5 minutes, and the supernatant was collected. Referring to the instructions in the Pierce™ BCA Protein Assay Kit, the cell samples were tested for protein concentration.
The samples were adjusted to the same concentration using lysis buffer and NuPAGE® LDS sample buffer containing 1 M DTT. The samples were heated at 95° C. for 5 minutes and centrifuged at low temperature and high speed. 20 μL of prepared protein sample and 4 μL of PageRuler Prestained Protein Ladder were added to the gel wells. The mixture was electrophoresed at a voltage of 80 V for 0.5 hours, and then electrophoresed for another 1.5 hours after the voltage was adjusted to 120 V. The gel was removed and proteins in the gel were transferred to IBlot™ 2 Transfer Stack at a voltage of 20V. After successful membrane transfer, the bands were cut out at 65 kDa to 40 kDa and 40 kDa to 30 kDa, respectively. The membrane was blocked with 5% non-fat milk at room temperature for 1 hour. The membrane was washed three times with 1×TBST, and incubated with IRAK4 antibody working solution at 4° C. overnight. The IRAK4 antibody working solution was discarded, and the membrane was washed three times with 1×TBST. After the corresponding membrane was incubated with Goat Anti-Rabbit IgG H&L (HRP) working solution and Goat Anti-Mouse IgG H&L (HRP) working solution at room temperature for 1 hour, the antibody working solutions were discarded, and the membrane was washed three times with 1×TBST. Referring to the instructions in the SuperSignal™ West Femto Maximum Sensitivity Substrate Kit, the reagents in the kit were mixed in equal volume proportions to prepare a luminescent mixture, and the membrane was incubated for 1 minute and removed for exposure.
WB assay: The results 24 hours after administration at 1 μM were divided into estimated <25%, <50%, <75%, and <100%.

Row | SMILES | IC50 (IRAK4 kinase; Table 1) [nM] | IC50 (IRAK4 kinase; Table 2) [nM] | IC50 (THP-1 cells; Homo sapiens, THP-1, Table 3) [nM] | IC50 (THP-1 cells; Table 4) [nM] | IC50 (THP-1 cells; Homo sapiens, THP-1, Table 4) [nM] | Western Blot results 24 hours after administration at a drug concentration of 1 μM [1] [%]
1 | CC(C)(O)c1cc2nn(CCN3CCN(CC(=O)NCCOCCOCCNc4cccc5c4C(=O)N(C4CCC(=O)NC4=O)C5=O)C3=O)cc2cc1NC(=O)c1cccc(C(F)(F)F)n1 (stereo not drawn) [III-2] | 100 to 1000 | 100 to 1000 | ≥ 10000 | ≥ 10000 | – | –
2 | CC(C)(O)c1cc2nn(CCN3CCN(CC(=O)NCCCCNc4cccc5c4C(=O)N(C4CCC(=O)NC4=O)C5=O)C3=O)cc2cc1NC(=O)c1cccc(C(F)(F)F)n1 (stereo not drawn) [III-10] | 100 to 1000 | 100 to 1000 | 1000 to 10000 | 1000 to 10000 | – | –
3 | CC(C)(O)c1cc2nn(CCN3CCN(CC(=O)N4CCC5(CC4)CCN(c4cccc6c4C(=O)N(C4CCC(=O)NC4=O)C6=O)CC5)C3=O)cc2cc1NC(=O)c1cccc(C(F)(F)F)n1 (stereo not drawn) [III-11] | 100 to 1000 | 100 to 1000 | – | – | 1000 to 10000 | –
4 | COc1cc2c(cc1NC(=O)c1cccc(C(F)(F)F)n1)CN(CC(=O)N1CCC3(CC1)CCN(c1cccc4c1C(=O)N(C1CCC(=O)NC1=O)C4=O)CC3)C2=O (stereo not drawn) [III-24] | 100 to 1000 | 100 to 1000 | 100 to 1000 | 100 to 1000 | – | –
5 | COc1cc2c(cc1NC(=O)c1cccc(C(F)(F)F)n1)CN(CCC(C)(C)C(=O)N1CCC3(CC1)CCN(c1cccc4c1C(=O)N(C1CCC(=O)NC1=O)C4=O)CC3)C2=O (stereo not drawn) [III-25] | 100 to 1000 | 100 to 1000 | 1000 to 10000 | 1000 to 10000 | – | –
6 | COc1cc2nn(CCN3CCN(c4cccc5c4C(=O)N(C4CCC(=O)NC4=O)C5=O)CC3)cc2cc1NC(=O)c1cccc(C(F)(F)F)n1 (stereo not drawn) [III-39] | – | < 100 | – | – | – | <25
7 | COc1cc2c(cc1NC(=O)c1cccc(C(F)(F)F)n1)CN(CCC(C)(C)C(=O)NC1CCN(c3cccc4c3C(=O)N(C3CCC(=O)NC3=O)C4=O)CC1)C2=O (stereo not drawn) [III-41] | – | < 100 | – | – | – | <25
8 | COc1cc2nn(CCN3CC4CCC(C3)N4CC(=O)N3CCC4(CC3)CCN(c3cccc5c3C(=O)N(C3CCC(=O)NC3=O)C5=O)CC4)cc2cc1NC(=O)c1cccc(C(F)(F)F)n1 (stereo not drawn) [III-54] | – | < 100 | – | – | – | <25
9 | COc1cc2nn(CCN3CCN(c4ccc(OCC#Cc5cccc6c5C(=O)N(C5CCC(=O)NC5=O)C6=O)cc4)CC3)cc2cc1NC(=O)c1cccc(C(F)(F)F)n1 (stereo not drawn) [III-69] | – | 100 to 1000 | – | – | – | <25

More lines, now with the values ahead:

Row | IC50 (IRAK4 kinase; Table 1) [nM] | IC50 (IRAK4 kinase; Table 2) [nM] | IC50 (THP-1 cells; Homo sapiens, THP-1, Table 3) [nM] | IC50 (THP-1 cells; Table 4) [nM] | IC50 (THP-1 cells; Homo sapiens, THP-1, Table 4) [nM] | Western Blot results 24 hours after administration at a drug concentration of 1 μM [1] [%] | SMILES
10 | < 100 | < 100 | 1000 to 10000 | 1000 to 10000 | – | – | COc1cc2c(cc1NC(=O)c1cccc(C(F)(F)F)n1)CN(CCC(C)(C)C(=O)N1CCC3(CCC(C(=O)N[C@H](C(=O)N4C[C@H](O)C[C@H]4C(=O)N[C@@H](C)c4ccc(-c5scnc5C)cc4)C(C)(C)C)CC3)CC1)C2=O [III-26]
11 | < 100 | < 100 | – | – | 1000 to 10000 | – | COc1cc2nn(CCN3CCN(CC(=O)N4CCC5(CCC(C(=O)N[C@H](C(=O)N6C[C@H](O)C[C@H]6C(=O)N[C@@H](C)c6ccc(-c7scnc7C)cc6)C(C)(C)C)CC5)CC4)CC3)cc2cc1NC(=O)c1cccc(C(F)(F)F)n1 [III-29]
12 | – | < 100 | – | – | 1000 to 10000 | – | COc1cc2nn(CCN3CCN(CC(=O)N4CCC5(CC4)CCN(c4ncc(Nc6cccc7c6C(=O)N(C6CCC(=O)NC6=O)C7=O)cn4)CC5)CC3)cc2cc1NC(=O)c1cccc(C(F)(F)F)n1 (stereo not drawn) [III-30]
13 | < 100 | < 100 | – | – | 1000 to 10000 | – | COc1cc2nn(CCN3CCN(CC(=O)N4CC5(CC(CC(=O)N[C@H](C(=O)N6C[C@H](O)C[C@H]6C(=O)N[C@@H](C)c6ccc(-c7scnc7C)cc6)C(C)(C)C)C5)C4)CC3)cc2cc1NC(=O)c1cccc(C(F)(F)F)n1 [III-31]
14 | – | < 100 | – | – | 100 to 1000 | – | COc1cc2nn(CCN3CCN(CC(=O)N4CCC5(CCC(N[C@H](C(=O)N6C[C@H](O)C[C@H]6C(=O)N[C@@H](C)c6ccc(-c7scnc7C)cc6)C(C)(C)C)CC5)CC4)C3=O)cc2cc1NC(=O)c1cccc(C(F)(F)F)n1 [III-35]
15 | – | < 100 | – | – | – | <25 | COc1cc2nn(CCN3CCN(CC(=O)N4CCC5(CCC(Oc6cccc7c6C(=O)N(C6CCC(=O)NC6=O)C7=O)CC5)CC4)CC3)cc2cc1NC(=O)c1cccc(C(F)(F)F)n1 (stereo not drawn) [III-56]
16 | – | < 100 | – | – | – | <25 | CC(C)(O)c1cc2nn(CCN3CCN(CC(=O)N4CC5(C4)CN(c4cccc6c4C(=O)N(C4CCC(=O)NC4=O)C6=O)C5)CC3)cc2cc1NC(=O)c1cccc(C(F)(F)F)n1 (stereo not drawn) [III-63]
